Where a SMILES comes first, the peptide text is derived from it. Bridges are numbered along the chain shown (N, C = ends).
Assays:
[1] = test system: human cell lines; assay: MTT cytotoxic activity assay, IC50 summarised over cell lines; format: cell-based; conditions: all human cells tested; MTT 48 h; read-out: IC50 range on human cancer, transformed, and normal cell lines
Description: Cytotoxic activities of PM III, its isoforms, and tachyplesins against seven human cell lines were evaluated. Four cancer (HL-60 acute promyelocytic leukemia, HeLa cervix adenocarcinoma, SK-BR-3 breast adenocarcinoma, A549 lung carcinoma), one transformed (HEK 293T transformed human embryonic kidney), and two normal human cell lines (HEF human embryonic fibroblasts and NHA normal human astrocytes) were used for these experiments. Cytotoxicity was measured by incubating the cells with serial dilutions of PM I, PM II, PM III, TP I, TP II, or TP III samples followed by MTT assay after 48 h. The half-maximal inhibitory concentrations (IC50) were measured as the peptide concentration at which cell viability was reduced by 50% in comparison to untreated cells (Table 3).
The colorimetric 3-(4,5-dimethylthiazol-2-yl)-2,5-diphenyltetrazolium bromide (MTT) dye reduction assay was used to determine the cytotoxicity of the polyphemusins and tachyplesins. Cells (3 × 10^3–6 × 10^3 per well) were placed into 96-well plates in Dulbecco’s modified Eagle’s medium (DMEM/F12) supplemented with 10% fetal bovine serum (FBS). […] The absorbance at 570 nm was measured by a microplate reader (Eppendorf, Hamburg, Germany).

[2] = test system: Gram-positive and Gram-negative bacteria; assay: Antimicrobial assay, MIC summarised over the panel of strains; format: cell-based; conditions: E. coli ML35p, K. pneumoniae (CI 287) and S. aureus 209P
Description: Bacterial test cultures were grown in the Mueller-Hinton (MH) medium at 37 °C to mid-log phase and then diluted with the 2 x MH medium supplemented with 1.8% NaCl. 50 µL of the bacterial suspension with a final cell concentration of 10^6 CFU/mL were added to aliquots of 50 µL of the peptide solutions and serially diluted with sterilized 0.1% bovine serum albumin in 96-well flat-bottom polystyrene microplates (Eppendorf, Hamburg, Germany). Bacterial cells were incubated for 24 h at 37 °C and 900 rpm on the plate thermoshaker (Biosan, Riga, Latvia). The minimum inhibitory concentrations (MIC) were determined as the lowest peptide concentration that prevented growth of a test microorganism observed as visible turbidity. The results were expressed as median values of three independent triplicated experiments. Assessment of antimicrobial activities of the recombinant PM III, other polyphemusins, and tachyplesins was conducted against Gram-negative (Escherichia coli ML-35p, Klebsiella pneumoniae (clinical isolate, CI 287), Pseudomonas aeruginosa PAO1) and Gram-positive (Staphylococcus aureus ATCC 29213, Staphylococcus aureus 209P, Bacillus subtilis B-886, Micrococcus luteus B-1314) bacteria.

CC(C)[C@@H]1NC(=O)[C@H](CCCNC(=N)N)NC(=O)[C@H](Cc2ccccc2)NC(=O)[C@@H](NC(=O)CNC(=O)[C@H](CCCNC(=N)N)NC(=O)[C@@H](N)CCCNC(=N)N)CSSC[C@@H](C(=O)N[C@@H](CCCNC(=N)N)C(=O)O)NC(=O)[C@H](CCCNC(=N)N)NC(=O)[C@H](CCC(N)=O)NC(=O)[C@H](Cc2ccccc2)NC(=O)[C@@H]2CSSC[C@H](NC1=O)C(=O)N[C@@H](Cc1ccc(O)cc1)C(=O)N[C@@H](CCCNC(=N)N)C(=O)NCC(=O)N[C@@H](Cc1ccccc1)C(=O)N2 [PM III, polyphemusin III] (H-RRGCFRVCYRGFCFQRCR-OH; disulfide 4-17, 8-13 (inferred); N-terminus assumed)
IC50 [1]: < 10 µM
reduction in activity compared to PM I, TP I, and TP III [2]: 4 fold

Source: publication PMC6315362, “Cytotoxic Potential of the Novel Horseshoe Crab Peptide Polyphemusin III” (Marine Drugs, 2018)
